ChEMBL document CHEMBL1201862, “PubChem BioAssay data set” (2004)
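All cell lines were grown in 96-well plates and treated with compound for 48 hours. Here, GI50 denotes the concentration required for 50% inhibition of growth.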 Activity calls are given as the source filed them. No stated cut-off is given here; in the data, active = GI50 up to about 1.1 µM and inactive = higher.

What was measured:
Assay in all cases: growth of human tumour cells (NCI), 48 h
A498 = tested on: A498
CAKI-1 = tested on: CAKI-1
CCRF-CEM = tested on: CCRF-CEM
HCT-116 = tested on: HCT-116
HL-60 = tested on: HL-60
IGROV-1 = tested on: IGROV-1
LOX IMVI = tested on: LOX IMVI
MCF7 = tested on: MCF7
MOLT-4 = tested on: MOLT-4
OVCAR-5 = tested on: OVCAR-5
RXF 393 = tested on: RXF 393
SK-MEL-2 = tested on: SK-MEL-2
SK-OV-3 = tested on: SK-OV-3
SNB-75 = tested on: SNB-75
SW-620 = tested on: SW-620
TK-10 = tested on: TK-10
UACC-257 = tested on: UACC-257
BT-549 = tested on: BT-549

Structure (SMILES) | GI50 (A498) | GI50 (CAKI-1) | GI50 (CCRF-CEM) | GI50 (HCT-116) | GI50 (HL-60) | GI50 (IGROV-1) | GI50 (LOX IMVI) | GI50 (MCF7) | GI50 (MOLT-4) | GI50 (OVCAR-5) | GI50 (RXF 393) | GI50 (SK-MEL-2) | GI50 (SK-OV-3) | GI50 (SNB-75) | GI50 (SW-620) | GI50 (TK-10) | GI50 (UACC-257) | GI50 (BT-549)
COC1=CC(=O)C(O)=C(C[C@@]2(C)[C@@H]3CCC[C@H](COC(=O)CCCCCNC(=O)OC(C)(C)C)[C@@]3(C)CC[C@@H]2C)C1=O | > 10 µM (inactive) | 4.61 µM (inactive) | 1.09 µM (active) | 6.55 µM (inactive) | 3.04 µM (inactive) | 3.61 µM (inactive) | > 10 µM (inactive) | 4.22 µM (inactive) | 3.1 µM (inactive) | > 10 µM (inactive) | 3.67 µM (inactive) | > 10 µM (inactive) | > 10 µM (inactive) | 5.11 µM (inactive) | 6.34 µM (inactive) | > 10 µM (inactive) | > 10 µM (inactive) | 
O=C(c1ccccc1)c1ccc2c(c1)NC(=O)c1ccccc1SSc1ccccc1C(=O)N2 | > 100 µM (inactive) | > 100 µM (inactive) | > 100 µM (inactive) | > 100 µM (inactive) | > 100 µM (inactive) | > 100 µM (inactive) | > 100 µM (inactive) |  | > 100 µM (inactive) | > 100 µM (inactive) | > 100 µM (inactive) | > 100 µM (inactive) | > 100 µM (inactive) |  | > 100 µM (inactive) | > 100 µM (inactive) | > 100 µM (inactive) | > 100 µM (inactive)
COc1ccccc1NC(=S)NN=C(C)c1cccc(C(C)=NNC(=S)Nc2ccccc2OC)n1 | 29.1 µM (inactive) | 82.2 µM (inactive) | 4.78 µM (inactive) | 2.95 µM (inactive) | 26.3 µM (inactive) | 25.5 µM (inactive) | 31.8 µM (inactive) | 29.1 µM (inactive) | 3.54 µM (inactive) | > 100 µM (inactive) | 12.9 µM (inactive) | 44.9 µM (inactive) | 99.8 µM (inactive) | 94.6 µM (inactive) | 7.73 µM (inactive) | 0.18 µM (active) | 25.8 µM (inactive) | 
O=C1C=C2CCC[C@H]3OC(=O)C[C@@]23CC1 | > 100 µM (inactive) | > 100 µM (inactive) |  | > 100 µM (inactive) | > 100 µM (inactive) | > 100 µM (inactive) | > 100 µM (inactive) |  | > 100 µM (inactive) | > 100 µM (inactive) | > 100 µM (inactive) | > 100 µM (inactive) | > 100 µM (inactive) |  | > 100 µM (inactive) | > 100 µM (inactive) | > 100 µM (inactive) | 
O=C1CCCSCCCC(=O)CCCSCCC1 |  |  | > 100 µM (inactive) | > 100 µM (inactive) | > 100 µM (inactive) | > 100 µM (inactive) | > 100 µM (inactive) | > 100 µM (inactive) | > 100 µM (inactive) | > 100 µM (inactive) |  |  | > 100 µM (inactive) | 93.3 µM (inactive) | > 100 µM (inactive) | > 100 µM (inactive) | > 100 µM (inactive) | > 100 µM (inactive)
O=C1c2ccccc2C(=O)c2c(NCCNC(=O)C3CCCN3)ccc(NCCNC(=O)C3CCCN3)c21 (stereo not given) |  | > 100 µM (inactive) | 18.8 µM (inactive) | 2.65 µM (inactive) | 31 µM (inactive) | 62.7 µM (inactive) | 0.0415 µM (active) | 30.8 µM (inactive) | 22.1 µM (inactive) | 51.4 µM (inactive) |  | > 100 µM (inactive) | > 100 µM (inactive) | 53.3 µM (inactive) | 40.4 µM (inactive) | > 100 µM (inactive) | > 100 µM (inactive) | 29.9 µM (inactive)
C=C1C(=O)O[C@@H]2C=C(C)C3=CC(=O)[C@](C)(C[C@H](OC(=O)/C(C)=C\C)[C@@H]12)O3 |  | 0.509 µM (active) | 0.209 µM (active) | 0.282 µM (active) | 0.157 µM (active) | 1.03 µM (active) | 0.299 µM (active) | 0.41 µM (active) | 0.273 µM (active) | 1.97 µM (inactive) | 0.29 µM (active) | 1.7 µM (inactive) | 4.05 µM (inactive) | 13.5 µM (inactive) | 0.306 µM (active) |  | 2.14 µM (inactive) | 
CCCCNC(=S)N/C=C1\C(=O)Oc2ccccc2C1=O |  | 26.1 µM (inactive) |  | 73.5 µM (inactive) | 10 µM (inactive) | 35.4 µM (inactive) | > 100 µM (inactive) | > 100 µM (inactive) | 43.3 µM (inactive) | > 100 µM (inactive) |  | 38.5 µM (inactive) | > 100 µM (inactive) | 2.69 µM (inactive) | 41.7 µM (inactive) | > 100 µM (inactive) | > 100 µM (inactive) | 
CCOC(=O)Cn1c(=O)c2nc(SC)sc2n(-c2ccc(C)cc2)c1=S | 46.8 µM (inactive) | > 100 µM (inactive) | > 100 µM (inactive) | > 71.8 µM (inactive) | > 100 µM (inactive) | 55.3 µM (inactive) | > 100 µM (inactive) | > 100 µM (inactive) | > 100 µM (inactive) | > 100 µM (inactive) | 22.8 µM (inactive) | 23.7 µM (inactive) | 45.8 µM (inactive) | 9.71 µM (inactive) | > 100 µM (inactive) | 36.7 µM (inactive) | > 100 µM (inactive) | 
